Like-named read-outs stand apart in the source and are kept apart here.
Experiments:
[1] = Pharmacokinetic study: plasma concentration and plasma PK parameters after IV/PO dosing (LC-MS/MS, WinNonlin); format: in vivo, Male SD Rat; settings: male, rat, plasma, male SD rat, plasma; for half-life: read-out: T1/2, Mean (converted)
Procedure, shortened: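 Plasma levels after IV and oral dosing were measured by LC-MS/MS. Non-compartmental parameters came from concentration–time data: T1/2, C0, AUC, MRT, Cl and Vss for IV; T1/2, Cmax, Tmax, AUC, MRT and F% for PO. Values are given as mean and standard deviation.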

[2] = Acid pKa of the free base; format: physicochemical
[3] = Solubility studies in water at 2 hours; format: physicochemical
[4] = Sprague-Dawley, iv, 3 mg/kg, IV 3 mg/kg, individual rats, read-out: concentration in plasma
[5] = Sprague-Dawley, iv, 3 mg/kg, IV 3 mg/kg, mean n=3, read-out: concentration in plasma, Mean
[6] = Sprague-Dawley, po, 10 mg/kg, PO 10 mg/kg (equal to freebase), mean n=3, vehicle 20% HP-β-CD in water (POA, freebase) or water (salts), read-out: concentration in plasma, Mean
[7] = Sprague-Dawley, po, 10 mg/kg, PO 10 mg/kg (equal to freebase), individual rats, vehicle 20% HP-β-CD in water (POA, freebase) or water (salts), read-out: concentration in plasma

`COc1cc2c(cc1OC)[C@@H]1Cc3ccc(O)c(OC)c3CN1CC2` [Compound (1), l-corydalmine] showed an AUC(0-inf) ([1]; SD, iv, 3 mg/kg, IV 3 mg/kg, individual rats, read-out: AUCInf) of 950 ng·h/mL, an AUC(0-t) ([1]; SD, iv, 3 mg/kg, IV 3 mg/kg, individual rats, read-out: AUClast) of 937 ng·h/mL and an MRT inf ([1]; SD, iv, 3 mg/kg, IV 3 mg/kg, individual rats, read-out: MRTInf_obs) of 1.09 h. It also gave an AUC(0-inf) ([1]; SD, iv, 3 mg/kg, IV 3 mg/kg, mean n=3, read-out: AUCInf, Mean) of 1020 ng·h/mL, an AUC(0-t) ([1]; SD, iv, 3 mg/kg, IV 3 mg/kg, mean n=3, read-out: AUClast, Mean) of 1000 ng·h/mL and an MRT inf ([1]; SD, iv, 3 mg/kg, IV 3 mg/kg, mean n=3, read-out: MRTInf_obs, Mean) of 1.23 h. It also gave an AUC(0-inf) ([1]; SD, po, 10 mg/kg, PO 10 mg/kg (equal to freebase), individual rats, vehicle 20% HP-β-CD in water (POA, freebase) or water (salts), read-out: AUCInf) of 1490 ng·h/mL, an AUC(0-t) ([1]; SD, po, 10 mg/kg, PO 10 mg/kg (equal to freebase), individual rats, vehicle 20% HP-β-CD in water (POA, freebase) or water (salts), read-out: AUClast) of 615 ng·h/mL and a Tmax ([1]; SD, po, 10 mg/kg, PO 10 mg/kg (equal to freebase), individual rats, vehicle 20% HP-β-CD in water (POA, freebase) or water (salts), read-out: Tmax) of 0.5 h. It also gave an AUC(0-inf) ([1]; SD, po, 10 mg/kg, PO 10 mg/kg (equal to freebase), mean n=3, vehicle 20% HP-β-CD in water (POA, freebase) or water (salts), read-out: AUCInf, Mean) of 1080 ng·h/mL, an AUC(0-t) ([1]; SD, po, 10 mg/kg, PO 10 mg/kg (equal to freebase), mean n=3, vehicle 20% HP-β-CD in water (POA, freebase) or water (salts), read-out: AUClast, Mean) of 788 ng·h/mL and a Cmax ([1]; SD, po, 10 mg/kg, PO 10 mg/kg (equal to freebase), mean n=3, vehicle 20% HP-β-CD in water (POA, freebase) or water (salts), read-out: Cmax, Mean) of 202 ng/mL. It also gave an MRT inf ([1]; SD, po, 10 mg/kg, PO 10 mg/kg (equal to freebase), mean n=3, vehicle 20% HP-β-CD in water (POA, freebase) or water (salts), read-out: MRTInf_obs, Mean) of 7.84 h, a half-life ([1]; SD, po, 10 mg/kg, PO 10 mg/kg (equal to freebase), mean n=3, vehicle 20% HP-β-CD in water (POA, freebase) or water (salts)) of 4.9 h and a Tmax ([1]; SD, po, 10 mg/kg, PO 10 mg/kg (equal to freebase), mean n=3, vehicle 20% HP-β-CD in water (POA, freebase) or water (salts), read-out: Tmax, Mean) of 0.417 h. For the same compound, the concentration at 0.083 h [1, 4] was 1420 ng/mL, the concentration at 0.083 h [1, 5] was 1480 ng/mL and the concentration at 0.25 h [1, 4] was 974 ng/mL. For the same compound, the concentration at 0.25 h [1, 5] was 976 ng/mL, the concentration at 0.5 h [1, 4] was 401 ng/mL and the concentration at 0.5 h [1, 5] was 478 ng/mL. For the same compound, the concentration at 1 h [1, 4] was 192 ng/mL, the concentration at 1 h [1, 5] was 191 ng/mL and the concentration at 2 h [1, 4] was 63.3 ng/mL. The concentration at 2 h [1, 5] was 68.4 ng/mL, the concentration at 4 h [1, 5] was 30.6 ng/mL and the concentration at 8 h [1, 5] was 6.38 ng/mL. The concentration at 24 h [1, 4] was 0.5 ng/mL, the C0 ([1]; Sprague-Dawley, iv, 3 mg/kg, IV 3 mg/kg, individual rats, read-out: C0) was 1710 ng/mL and the half-life ([1]; Sprague-Dawley, iv, 3 mg/kg, IV 3 mg/kg, mean n=3) was 2.73 h. For the same compound, the concentration at 0.25 h [1, 6] was 191 ng/mL, the concentration at 0.5 h [1, 6] was 197 ng/mL and the concentration at 1 h [1, 7] was 109 ng/mL. It also gave a concentration at 1 h [1, 6] of 125 ng/mL, a concentration at 2 h [1, 7] of 75.1 ng/mL and a concentration at 2 h [1, 6] of 66.7 ng/mL. For the same compound, the concentration at 4 h [1, 7] was 66.3 ng/mL, the concentration at 4 h [1, 6] was 51.2 ng/mL and the concentration at 8 h [1, 7] was 68.7 ng/mL. It also gave a concentration at 8 h [1, 6] of 49.9 ng/mL, a concentration at 24 h ([1]; Sprague-Dawley, po, 10 mg/kg, PO 10 mg/kg, mean (one rat BLOQ), vehicle 20% HP-β-CD in water (POA), read-out: concentration in plasma, Mean) of 0.574 ng/mL and a pKa [2] of roughly 5.2. The solubility at 2 h [3] was less than 1000 µg/mL.

Reference: US11236081B2, “Crystalline salts of corydalmine” (priority 2018, dated 2022)
